Measured values published in US8962621B2 (Shanghai Institute of Pharmaceutical Industry, priority 2010, dated 2015).
Like-named read-outs stand apart in the source and are kept apart here.

How the values were obtained:
male ICR mice = assay: Mice tail suspension test; format: in vivo; conditions: for IT (sec), immobility time: 20.0 mg/kg single intragastric administration, 1 h before test, 4 min observation, n=12; for Improvement (%): 20.0 mg/kg single oral administration, versus blank control IT; for effect on immobility time in the tail suspension test (in words): efficacy similar to Venlafaxine
Procedure: Through intragastric administration, 10 mL·kg^−1 of each sample (physiological saline for the blank control group) is administrated. After 1 h of the treatment, the mouse is held with a medical tape at a position around 2 cm from the tip of its tail and hung upside-down in the suspension cage with its head 5 cm away from the bottom of the cage. The observation starts right after the mouse is suspended for 2 min and continues for 4 min. The time during which the mouse is immobile (no struggling or only tiny movements of its body/limbs) in this 4 min is accumulated (IT, immobility time). The percentage of the improvement is calculated according to the equation: Improvement %=[IT (blank control group)−IT (compound treatment group)]/IT (blank control group)×100%

male Kunming mice = assay: Mice forced swimming test; format: in vivo; conditions: for effect in the forced swimming test (in words): 20 mg/kg; for IT (sec), immobility time: 20.0 mg/kg single intragastric administration, 1 h before test, last 4 min of 6 min, n=12
Procedure: Through intragastric administration, 10 mL·kg^−1 of each sample (physiological saline for the blank control group) is administrated. The mice are pre-screened for swimming one day before the actual test. The mouse is placed into water (25° C., 10 cm deep) in a glass tank (height 20 cm, diameter 14 cm) and forced to swim for 6 min. Those who stop swimming at around 70-160 s are chosen for the actual test which starts 24 h later. After 1 h of the administration, the forced swimming test is performed by placing the animal into the above-mentioned environment to swim for 6 min. The accumulative immobility time for the last 4 min is recorded. Data is statistically analyzed with t-test.

[1] = Acute toxicity experiment (single oral gavage); conditions: mouse, in vivo
[2] = test system: Histidine auxotroph mutant of mouse salmonella TA97, TA98, TA100 and TA102; format: cell-based; conditions: for bacteriostatic action: 5000 μg per dish, TA98 without S9 and TA97 with S9, none at other dosages; for Ames test result: TA97, TA98, TA100, TA102, with or without S9, all test dosages
Text: 5. […] 6. Bacterial Reverse Mutation Test of Compounds VI-1 VI-2 and VI16 • Strains: Histidine auxotroph mutant of mouse salmonella TA97, TA98, TA100 and TA102. • Test method: The one reported in Maron DM et al: (1983) Mutay Res. 113, 173-216 is used. • Results: The test consists of two parts, i.e., −S9 and +S9. […] No bacteriostatic actions to all the strains are observed at all the other dosages, and the growth background is good.

NA Transporter (hNAT) = NA Transporter (hNAT) (Homo sapiens, UniProt P23975); assay: Inhibition of [3H]-NA reuptake in HEK 293 cells stably expressing hNAT; conditions: for inhibition at 10 µM: HEK293, read-out: NA Reuptake Inhibition; for NA Reuptake Inhibition: 10 μmol/L final concentration (b487 prints 0.1 mmol/L), HEK 293 hNAT cells, [3H]-NA
DA Transporter (hDAT) = DA Transporter (hDAT) (Homo sapiens, UniProt Q01959); assay: Inhibition of [3H]-DA reuptake in HEK 293 cells stably expressing hDAT; conditions: for inhibition at 10 µM: HEK293, read-out: DA Reuptake Inhibition; for DA Reuptake Inhibition: 10 μmol/L final concentration (b487 prints 0.1 mmol/L), HEK 293 hDAT cells, [3H]-DA
5-HT Transporter (hSERT) = 5-HT Transporter (hSERT) (Homo sapiens, UniProt P31645); assay: Inhibition of [3H]-5-HT reuptake in HEK 293 cells stably expressing hSERT; conditions: for inhibition at 10 µM: HEK293, read-out: 5-HT Reuptake Inhibition; for 5-HT Reuptake Inhibition: 10 μmol/L final concentration (b487 prints 0.1 mmol/L), HEK 293 hSERT cells, [3H]-5-HT;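 as to all read-outs here: compound preincubated 10 min at 30 °C, then 10 min uptake, filter-bound radioactivity counted by scintillation, inhibition relative to total (blank) minus non-specific (positive control) uptake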
rats = assay: Learned helplessness experiment (conditioned avoidance test); format: in vivo
Text: (1) Principles • This is an animal model of depression. In this experiment, an animal is placed under conditions with aversive stimulus which it can't escape. […] This is a well recognized depression state, in which the level of catecholamine in the animal's brain is reduced. An antidepressant can act against this state. The learned helplessness model is sensitive to a variety of antidepressants used in a sub-long period (3-7 d), including tricyclic antidepressants, monoamine oxidase inhibitors, monoamine reuptake inhibitors and atypical antidepressants.
(2) Test Method • The animals are grouped. The pre-shock animals are generated the first day by performing inescapable electric shock. The pre-shock animals are given foot electric shock (0.8 mA, 15 s) for 60 times (1 min interval). Rats in the control group are only put into the cage for a same period of time but without any electric shock. • The administration of drugs starts the next day and lasts for one week. […] The conditioned avoidance test is conducted 24 h after the last administration to determine the number of times of successful avoidance and the incubation period of escape.

[3] = 30 mg/kg, one week, test 24 h after last administration, n = 10
[4] = Venlafaxine 30 mg/kg, VI-2 at 3 doses (20, 10, 5 mg/kg)

Chain of 5-HT Transporter (hSERT) (P31645 whole entry): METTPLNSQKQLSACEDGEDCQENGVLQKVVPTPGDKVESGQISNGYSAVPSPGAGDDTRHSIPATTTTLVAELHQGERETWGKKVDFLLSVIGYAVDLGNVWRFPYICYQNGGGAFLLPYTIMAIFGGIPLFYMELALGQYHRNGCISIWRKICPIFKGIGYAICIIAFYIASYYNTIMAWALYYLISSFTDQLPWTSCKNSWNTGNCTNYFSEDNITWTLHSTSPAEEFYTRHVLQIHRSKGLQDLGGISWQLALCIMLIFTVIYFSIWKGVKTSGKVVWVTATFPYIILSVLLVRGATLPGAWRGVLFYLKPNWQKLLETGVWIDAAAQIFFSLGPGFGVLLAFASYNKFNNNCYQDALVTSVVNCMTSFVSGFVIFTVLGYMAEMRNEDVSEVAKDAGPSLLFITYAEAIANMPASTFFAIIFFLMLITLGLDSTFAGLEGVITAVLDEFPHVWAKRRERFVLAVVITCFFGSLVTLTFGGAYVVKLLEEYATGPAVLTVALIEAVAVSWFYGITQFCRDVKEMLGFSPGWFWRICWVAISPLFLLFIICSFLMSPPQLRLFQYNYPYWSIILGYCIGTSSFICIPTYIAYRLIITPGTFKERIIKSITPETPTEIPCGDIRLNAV
Chain of DA Transporter (hDAT) (Q01959 whole entry): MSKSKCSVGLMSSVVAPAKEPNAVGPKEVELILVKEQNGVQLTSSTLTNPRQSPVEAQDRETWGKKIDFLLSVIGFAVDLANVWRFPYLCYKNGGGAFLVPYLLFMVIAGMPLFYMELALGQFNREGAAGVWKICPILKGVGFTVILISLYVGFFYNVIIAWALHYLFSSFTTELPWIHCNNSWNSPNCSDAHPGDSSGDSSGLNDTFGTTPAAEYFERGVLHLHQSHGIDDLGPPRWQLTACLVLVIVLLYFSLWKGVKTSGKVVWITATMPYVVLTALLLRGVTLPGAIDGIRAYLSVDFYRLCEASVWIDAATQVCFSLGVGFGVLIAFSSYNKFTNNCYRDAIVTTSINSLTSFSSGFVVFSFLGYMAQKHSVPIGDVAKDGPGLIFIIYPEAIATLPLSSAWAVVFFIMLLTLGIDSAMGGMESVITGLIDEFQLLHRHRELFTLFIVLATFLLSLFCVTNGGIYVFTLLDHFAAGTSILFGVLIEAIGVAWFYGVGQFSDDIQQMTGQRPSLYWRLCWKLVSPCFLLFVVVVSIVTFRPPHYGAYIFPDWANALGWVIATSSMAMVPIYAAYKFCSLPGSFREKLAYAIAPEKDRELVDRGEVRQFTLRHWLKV
Chain of NA Transporter (hNAT) (P23975 whole entry): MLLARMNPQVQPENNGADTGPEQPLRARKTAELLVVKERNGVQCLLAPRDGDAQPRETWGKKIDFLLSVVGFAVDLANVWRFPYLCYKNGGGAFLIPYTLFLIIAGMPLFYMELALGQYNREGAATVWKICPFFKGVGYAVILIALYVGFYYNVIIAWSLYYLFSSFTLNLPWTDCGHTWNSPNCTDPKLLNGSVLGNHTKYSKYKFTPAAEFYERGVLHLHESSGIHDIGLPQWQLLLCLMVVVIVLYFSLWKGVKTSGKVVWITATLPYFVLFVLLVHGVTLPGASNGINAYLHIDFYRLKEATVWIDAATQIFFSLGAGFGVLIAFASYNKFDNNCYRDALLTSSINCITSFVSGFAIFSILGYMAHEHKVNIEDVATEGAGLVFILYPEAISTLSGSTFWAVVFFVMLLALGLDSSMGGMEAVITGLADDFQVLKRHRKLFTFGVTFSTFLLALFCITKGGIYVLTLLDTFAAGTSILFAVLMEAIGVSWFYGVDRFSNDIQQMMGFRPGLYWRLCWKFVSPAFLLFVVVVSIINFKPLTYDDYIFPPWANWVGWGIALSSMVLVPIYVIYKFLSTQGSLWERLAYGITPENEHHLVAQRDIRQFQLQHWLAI

SMILES	IT (sec), immobility time (male ICR mice) [s]	Improvement (%) (male ICR mice)	effect on immobility time in the tail suspension test (in words) (male ICR mice; 20 mg/kg)	effect in the forced swimming test (in words) (male Kunming mice)	IT (sec), immobility time (male Kunming mice) [s]	inhibition at 10 µM (NA Transporter (hNAT)) [%]	inhibition at 10 µM (DA Transporter (hDAT)) [%]	inhibition effect towards the reuptake of 5-HT (in words) (5-HT Transporter (hSERT))	inhibition at 10 µM (5-HT Transporter (hSERT)) [%]	NA Reuptake Inhibition (NA Transporter (hNAT)) [%]	DA Reuptake Inhibition (DA Transporter (hDAT)) [%]	5-HT Reuptake Inhibition (5-HT Transporter (hSERT)) [%]	other results
CN(C)CCC(c1csc2ccccc12)N1CCCCC1 (centres unmarked)	45.21 ± 28.19	54.42	significant reduction in the immobility time	significant reduction in the immobility time	62.1 ± 42.9	92.1	80.2	relatively strong inhibition effect	90.5	–	–	–	LD50 ([1]; mice, single oral gavage, Bliss method, read-out: LD50): 870 mg/kg; bacteriostatic action [2]: bacteriostatic action is showed; Ames test result [2]: negative
CCN(CC)CCC(c1ccc(Cl)c(Cl)c1)N1CCCC1 (centres unmarked) [VI-1, N,N-diethyl-3-(3,4-dichlorophenyl)-3-(pyrrolidin-1-yl)-propylamine]	48.17 ± 38.29	51.44	significant reduction in the immobility time	significant reduction in the immobility time	57.1 ± 37.8	101	101	relatively strong inhibition effect	98.2	–	–	–	LD50 ([1]; po): 1050 mg/kg; bacteriostatic action [2]: bacteriostatic action is showed; Ames test result [2]: negative
CN(C)CCC(c1cc2ccccc2s1)N1CCCC1 (centres unmarked) [VI-19, N,N-dimethyl-3-(benzothiophen-2-yl)-3-(pyrrolidin-1-yl)-propylamine]	50.28 ± 21.30	49.31	significant reduction in the immobility time	significant reduction in the immobility time	60.7 ± 26.7	91.2	75.6	–	95.3	–	–	–	–
CN(C)CCC(c1cc2ccccc2s1)N1CCCCC1 (centres unmarked) [VI-22, N,N-dimethyl-3-(benzothiophen-2-yl)-3-piperidinyl-propylamine]	65.25 ± 28.39	34.22	–	significant reduction in the immobility time	75.4 ± 40.3	–	–	relatively strong inhibition effect	–	99.8	96.5	96.3	–
CN(C)CCC(c1c[nH]c2ccccc12)N1CCOCC1 (centres unmarked) [VI-31, N,N-dimethyl-3-(indol-3-yl)-3-morpholinyl-propylamine]	78.36 ± 23.00	20.84	–	significant difference from that of the blank control	99.7 ± 43.7	–	–	relatively strong inhibition effect	–	88.1	75.6	87.9	–
COc1ccc2cc(C(CCN(C)C)N3CCCC3)ccc2c1Cl (centres unmarked) [VI-36, N,N-dimethyl-3-(5-chloro-6-methoxynaphthalen-2-yl)-3-(pyrrolidin-1-yl)-propylamine]	39.91 ± 18.35	59.29	significant reduction in the immobility time	significant difference from that of the blank control	90.6 ± 48.0	97.8	87.2	–	98.3	–	–	–	–
CN(C)CCCC(c1csc2ccccc12)N1CCOCC1 (centres unmarked) [VI-46, N,N-dimethyl-4-(benzothiophen-3-yl)-4-morpholinyl-butylamine]	86.19 ± 35.87	13.01	–	significant difference from that of the blank control	97 ± 48.5	–	–	relatively strong inhibition effect	–	89.5	78.0	92.3	–
COc1ccc(C(CN(C)C)C2(O)CCCCC2)cc1 (centres unmarked) [Venlafaxine, reference compound]	36.97 ± 21.10	62.73	–	–	77.4 ± 47.2	96.4	52.4	–	–	–	–	–	immobility time (male ICR mice; 20 mg/kg): 36.97 ± 21.10 s; Incubation period of escape (rats; [3]): 72.8 ± 77.26 s; Number of times of successful avoidance (rats; [3]): 19.4 ± 6.88; incubation period of escape (in words) (rats; [4]): significantly shortened incubation period of escape; times of successful avoidance (in words) (rats; [4]): relatively more times of successful avoidance
